In one test the target is T1, PI3Kγ (p120γ) (Homo sapiens, UniProt P48736).
T1 construct: purchased Promega V1761
Briefly: Inhibition of PI3K kinase activity (ADP Glo), PI3Kγ. The following applies: Table 1, p120γ, read-out: biochemical potency (PI3Kγ IC50). The essentials:
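Recombinant p120γ (8 nM, 2× stock) was preincubated with compound for 1 h at rt in HEPES pH 7.4, NaCl, MgCl2 and 0.05% BSA. Reaction was started with PIP2 (0.1 mg/ml, 2×) and ATP (50 μM, 2×) and ran 60 min at rt. ADP formed was read by ADP-Glo luminescence, and IC50 came from a 4-parameter fit.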
For orientation: ADP-Glo first removes unused ATP, then detects ADP through luciferase.

The next test concerns the target T2, PI3Kγ (Homo sapiens, UniProt P48736).
T2 construct: host or cells: THP-1
Briefly: PI3Kγ cellular assay in THP-1 cells (AKT pS473 AlphaLISA). In kind it is cell-based. The following applies: Table 1, rhMCP-1 stimulated AKT pS473, read-out: cellular potency (PI3Kγ IC50). The essentials: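 Serum-starved THP-1 cells (1.8×10^5/well, serum-free DMEM) treated with compounds from 4 nM to 30 μM in 2% DMSO, then stimulated and lysed.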
(Bead proximity is the source of the signal in Alpha formats.)

Bounds are passed on as bounds.

T2 sequence (P48736 whole entry): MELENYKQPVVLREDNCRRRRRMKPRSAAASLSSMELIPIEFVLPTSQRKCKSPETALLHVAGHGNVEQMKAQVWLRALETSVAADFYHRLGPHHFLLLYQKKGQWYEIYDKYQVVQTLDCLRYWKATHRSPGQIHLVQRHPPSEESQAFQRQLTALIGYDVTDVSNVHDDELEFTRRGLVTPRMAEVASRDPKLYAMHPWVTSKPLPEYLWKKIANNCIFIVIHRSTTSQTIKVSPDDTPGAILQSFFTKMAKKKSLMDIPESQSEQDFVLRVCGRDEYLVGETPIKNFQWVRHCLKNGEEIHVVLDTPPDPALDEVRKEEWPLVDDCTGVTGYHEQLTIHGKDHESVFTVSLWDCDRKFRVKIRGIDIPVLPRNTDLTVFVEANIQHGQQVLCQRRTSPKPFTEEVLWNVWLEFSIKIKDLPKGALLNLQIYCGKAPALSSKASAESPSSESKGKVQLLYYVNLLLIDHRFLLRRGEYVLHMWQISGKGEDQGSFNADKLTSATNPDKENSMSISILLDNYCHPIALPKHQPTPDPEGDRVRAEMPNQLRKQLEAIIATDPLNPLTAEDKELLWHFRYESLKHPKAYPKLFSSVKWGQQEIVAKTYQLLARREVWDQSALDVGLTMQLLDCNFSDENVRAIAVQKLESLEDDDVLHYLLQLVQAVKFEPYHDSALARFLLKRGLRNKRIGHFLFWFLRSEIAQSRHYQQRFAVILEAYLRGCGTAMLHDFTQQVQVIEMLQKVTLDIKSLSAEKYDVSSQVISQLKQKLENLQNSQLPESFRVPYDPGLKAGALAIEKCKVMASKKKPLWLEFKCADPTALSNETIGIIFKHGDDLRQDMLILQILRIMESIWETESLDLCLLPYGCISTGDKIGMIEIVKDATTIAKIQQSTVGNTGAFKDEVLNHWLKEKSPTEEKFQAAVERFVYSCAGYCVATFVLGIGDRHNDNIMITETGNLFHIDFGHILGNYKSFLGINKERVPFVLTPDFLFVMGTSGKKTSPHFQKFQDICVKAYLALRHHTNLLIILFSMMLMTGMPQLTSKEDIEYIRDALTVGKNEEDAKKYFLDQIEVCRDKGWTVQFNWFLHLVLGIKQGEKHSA
T1 sequence (P48736 whole entry): as above

The IC50 is the concentration needed to halve the response being measured. `CNS(=O)(=O)c1cc(-c2ccn3nc(N)c(C(=O)N[C@H]4C[C@H](O)C4)c3n2)cc2c1C(=O)N([C@@H](C)C1CC1)C2` [Example 141, 2-Amino-5-{2-[(1S)-1-cyclopropylethyl]-7-(methylsulfamoyl)-1-oxo-2,3-dihydro-1H-isoindol-5-yl}-N-[trans-3-hydroxycyclobutyl]pyrazolo[1,5-a]pyrimidine-3-carboxamide]: the IC50 on PI3Kγ (p120γ) and at PI3Kγ was less than 100 nM in each case.
`CNS(=O)(=O)c1cc(-c2ccn3nc(N)c(C(=O)NC4CC4)c3n2)cc2c1C(=O)N([C@@H](C)C1CC1)C2` [Example 142, 2-Amino-N-cyclopropyl-5-{2-[(1S)-1-cyclopropylethyl]-7-(methylsulfamoyl)-1-oxo-2,3-dihydro-1H-isoindol-5-yl}pyrazolo[1,5-a]pyrimidine-3-carboxamide]: the IC50 at PI3Kγ (p120γ) and at PI3Kγ was less than 100 nM throughout.
On to `CCNS(=O)(=O)c1cc(-c2ccn3nc(N)c(C(=O)NC4CC4)c3n2)cc2c1C(=O)N([C@@H](C)C1CC1)C2` [Example 143, 2-Amino-N-cyclopropyl-5-{2-[(1S)-1-cyclopropylethyl]-7-(ethylsulfamoyl)-1-oxo-2,3-dihydro-1H-isoindol-5-yl}pyrazolo[1,5-a]pyrimidine-3-carboxamide], for which the IC50 at PI3Kγ (p120γ) and on PI3Kγ was less than 100 nM each time.
Regarding `C[C@@H](C1CC1)N1Cc2cc(-c3ccn4nc(N)c(C(=O)NC5CC5)c4n3)cc(S(=O)(=O)N(C)C)c2C1=O` [Example 144, 2-Amino-N-cyclopropyl-5-{2-[(1S)-1-cyclopropylethyl]-7-(dimethylsulfamoyl)-1-oxo-2,3-dihydro-1H-isoindol-5-yl}pyrazolo[1,5-a]pyrimidine-3-carboxamide], the IC50 on PI3Kγ (p120γ) and at PI3Kγ was less than 100 nM each time.
`C[C@@H](C1CC1)N1Cc2cc(-c3ccn4nc(N)c(C(=O)N[C@H]5CNC(=O)C5)c4n3)cc(O[C@@H]3CCOC3)c2C1=O` [Example 145, 2-Amino-5-{2-[(1S)-1-cyclopropylethyl]-1-oxo-7-[(3R)-oxolan-3-yloxy]-2,3-dihydro-1H-isoindol-5-yl}-N-[(3R)-5-oxopyrrolidin-3-yl]pyrazolo[1,5-a]pyrimidine-3-carboxamide]: the 50% inhibitory concentration (IC50) at PI3Kγ (p120γ) and on PI3Kγ was less than 100 nM throughout.
Take `C[C@@H](C1CC1)N1Cc2cc(-c3ccn4nc(N)c(C(=O)NC5CC5)c4n3)cc(O[C@H]3CCOC3)c2C1=O` [Example 146, 2-Amino-N-cyclopropyl-5-{2-[(1S)-1-cyclopropylethyl]-1-oxo-7-[(3S)-oxolan-3-yloxy]-2,3-dihydro-1H-isoindol-5-yl}pyrazolo[1,5-a]pyrimidine-3-carboxamide]: the concentration for half-maximal inhibition (IC50) on PI3Kγ (p120γ) and on PI3Kγ was less than 100 nM each time.
For `C[C@@H](C1CC1)N1Cc2cc(-c3ccn4nc(N)c(C(=O)N[C@@H](CO)C5CC5)c4n3)cc(O[C@@H]3CCOC3)c2C1=O` [Example 147, 2-Amino-N-[(1R)-1-cyclopropyl-2-hydroxyethyl]-5-{2-[(1S)-1-cyclopropylethyl]-1-oxo-7-[(3R)-oxolan-3-yloxy]-2,3-dihydro-1H-isoindol-5-yl}pyrazolo[1,5-a]pyrimidine-3-carboxamide], the half-inhibitory concentration (IC50) on PI3Kγ (p120γ) and on PI3Kγ was less than 100 nM in each case.
With `C[C@@H](C1CC1)N1Cc2cc(-c3ccn4nc(N)c(C(=O)NC5CC5)c4n3)cc(O[C@@H]3CCOC3)c2C1=O` [Example 148, 2-Amino-N-cyclopropyl-5-{2-[(1S)-1-cyclopropylethyl]-1-oxo-7-[(3R)-oxolan-3-yloxy]-2,3-dihydro-1H-isoindol-5-yl}pyrazolo[1,5-a]pyrimidine-3-carboxamide], the IC50 at PI3Kγ (p120γ) and on PI3Kγ was less than 100 nM each time.
On to `C[C@@H](C1CC1)N1Cc2cc(-c3ccn4nc(N)c(C(=O)NC5CC5)c4n3)cc(O[C@H]3CC[C@H](O)CC3)c2C1=O` [Example 149, 2-Amino-N-cyclopropyl-5-{2-[(1S)-1-cyclopropylethyl]-1-oxo-7-{[(1R,4R)-4-hydroxycyclohexyl]oxy}-2,3-dihydro-1H-isoindol-5-yl}pyrazolo[1,5-a]pyrimidine-3-carboxamide], for which the IC50 on PI3Kγ (p120γ) and at PI3Kγ was less than 100 nM in each case.
`C[C@@H](C1CC1)N1Cc2cc(-c3ccn4nc(N)c(C(=O)NC5CC5)c4n3)cc(N3CC[C@@H](O)C3)c2C1=O` [Example 150, 2-Amino-N-cyclopropyl-5-{2-[(1S)-1-cyclopropylethyl]-7-[(3R)-3-hydroxypyrrolidin-1-yl]-1-oxo-2,3-dihydro-1H-isoindol-5-yl}pyrazolo[1,5-a]pyrimidine-3-carboxamide]: the IC50 on PI3Kγ (p120γ) and on PI3Kγ was less than 100 nM throughout.
Turning to `C[C@@H](C1CC1)N1Cc2cc(-c3ccn4nc(N)c(C(=O)N[C@H]5CC[C@@](C)(O)CC5)c4n3)cc(N3CC[C@@H](O)C3)c2C1=O` [Example 151, 2-Amino-5-{2-[(1S)-1-cyclopropylethyl]-7-[(3R)-3-hydroxypyrrolidin-1-yl]-1-oxo-2,3-dihydro-1H-isoindol-5-yl}-N-[cis-4-hydroxy-4-methylcyclohexyl]pyrazolo[1,5-a]pyrimidine-3-carboxamide], the concentration for half-maximal inhibition (IC50) on PI3Kγ (p120γ) and on PI3Kγ was less than 100 nM each time.
As to `C[C@@H](C1CC1)N1Cc2cc(-c3ccn4nc(N)c(C(=O)NC5CC5)c4n3)cc(N3CC[C@H](O)C3)c2C1=O` [Example 152, 2-Amino-N-cyclopropyl-5-{2-[(1S)-1-cyclopropylethyl]-7-[(3S)-3-hydroxypyrrolidin-1-yl]-1-oxo-2,3-dihydro-1H-isoindol-5-yl}pyrazolo[1,5-a]pyrimidine-3-carboxamide], the IC50 on PI3Kγ (p120γ) and on PI3Kγ was less than 100 nM throughout.
Consider `C[C@@H](C1CC1)N1Cc2cc(-c3ccn4nc(N)c(C(=O)N[C@H]5CC[C@](O)(C(F)(F)F)CC5)c4n3)cc(N3CC[C@@H](O)C3)c2C1=O` [Example 153, 2-Amino-5-{2-[(1S)-1-cyclopropylethyl]-7-[(3R)-3-hydroxypyrrolidin-1-yl]-1-oxo-2,3-dihydro-1H-isoindol-5-yl}-N-[cis-4-hydroxy-4-(trifluoromethyl)cyclohexyl]pyrazolo[1,5-a]pyrimidine-3-carboxamide], for which the concentration for half-maximal inhibition (IC50) on PI3Kγ (p120γ) and on PI3Kγ was less than 100 nM throughout.
Turning to `C[C@@H](C1CC1)N1Cc2cc(-c3ccn4nc(N)c(C(=O)N[C@H]5CC[C@@](C)(O)CC5)c4n3)cc(N3CCOCC3)c2C1=O` [Example 154, 2-Amino-5-{2-[(1S)-1-cyclopropylethyl]-7-(morpholin-4-yl)-1-oxo-2,3-dihydro-1H-isoindol-5-yl}-N-[cis-4-hydroxy-4-methylcyclohexyl]pyrazolo[1,5-a]pyrimidine-3-carboxamide], the IC50 on PI3Kγ (p120γ) and on PI3Kγ was less than 100 nM in each case.
Turning to `C[C@@H](C1CC1)N1Cc2cc(-c3ccn4nc(N)c(C(=O)NC5CC5)c4n3)cc(OCC(F)(F)F)c2C1=O` [Example 155, 2-Amino-N-cyclopropyl-5-{2-[(1S)-1-cyclopropylethyl]-1-oxo-7-(2,2,2-trifluoroethoxy)-2,3-dihydro-1H-isoindol-5-yl}pyrazolo[1,5-a]pyrimidine-3-carboxamide], the IC50 at PI3Kγ (p120γ) and on PI3Kγ was less than 100 nM throughout.

(Values after patent US20230024302A1, “2,3,5-TRISUBSTITUTED PYRAZOLO[1,5-A]PYRIMIDINE COMPOUNDS” (Arcus Biosciences, Inc., priority 2019, published 2023).)
